Experimental data from PubChem BioAssay AID1918942 (Molecular Pharmacology Branch, DTP, NCI, 2023).

Test system: 743489-274-T-PDC complex spheroid viability
Test: Anticancer human tumor 743489-274-T-PDC patient-derived renal cell carcinoma cell line growth inhibition
Details: for IC50: curve of first compound; for viability, T/C: stronger effect = lower value
Method in brief: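 Complex spheroids of tumor cells with HUVEC and human MSCs, exposed to iadademstat combined with other agents. Each agent tested in half-log steps from near clinical Cmax (else 10 microM top), DMSO ≤0.25%.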

[1] = second compound 0.1 µM, first compound 0.000316 µM
[2] = second compound 0.1 µM, first compound 0.001 µM
[3] = second compound 0.1 µM, first compound 0.00316 µM
[4] = second compound 0.1 µM, first compound 0.01 µM
[5] = second compound 0.1 µM, first compound 0.0316 µM
[6] = second compound 0.1 µM, first compound 0.1 µM
[7] = second compound 0.316 µM, first compound 0.000316 µM
[8] = second compound 0.316 µM, first compound 0.001 µM
[9] = second compound 0.316 µM, first compound 0.00316 µM
[10] = second compound 0.316 µM, first compound 0.01 µM
[11] = second compound 0.316 µM, first compound 0.0316 µM
[12] = second compound 0.316 µM, first compound 0.1 µM
[13] = second compound 1 µM, first compound 0.000316 µM
[14] = second compound 1 µM, first compound 0.001 µM
[15] = second compound 1 µM, first compound 0.00316 µM
[16] = second compound 1 µM, first compound 0.01 µM
[17] = second compound 1 µM, first compound 0.0316 µM
[18] = second compound 1 µM, first compound 0.1 µM
[19] = second compound 3.16 µM, first compound 0.000316 µM
[20] = second compound 3.16 µM, first compound 0.001 µM
[21] = second compound 3.16 µM, first compound 0.00316 µM
[22] = second compound 3.16 µM, first compound 0.01 µM
[23] = second compound 3.16 µM, first compound 0.0316 µM
[24] = second compound 3.16 µM, first compound 0.1 µM
[25] = second compound 10 µM, first compound 0.000316 µM
[26] = second compound 10 µM, first compound 0.001 µM
[27] = second compound 10 µM, first compound 0.00316 µM
[28] = second compound 10 µM, first compound 0.01 µM
[29] = second compound 10 µM, first compound 0.0316 µM
[30] = second compound 10 µM, first compound 0.1 µM
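Note: spheroids exposed to compounds for 7 days before readout.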
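Throughout, for viability, T/C: 100% = DMSO vehicle control wells.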

| Structure (SMILES) | IC50 (second compound 0.1 µM) | IC50 (second compound 0.316 µM) | IC50 (second compound 1 µM) | IC50 (second compound 3.16 µM) | IC50 (second compound 10 µM) | viability, T/C [1] | viability, T/C [2] | viability, T/C [3] | viability, T/C [4] | viability, T/C [5] | viability, T/C [6] | viability, T/C [7] | viability, T/C [8] | viability, T/C [9] | viability, T/C [10] | viability, T/C [11] | viability, T/C [12] | viability, T/C [13] | viability, T/C [14] | viability, T/C [15] | other results |
| --- | --- | --- | --- | --- | --- | --- | --- | --- | --- | --- | --- | --- | --- | --- | --- | --- | --- | --- | --- | --- | --- |
| CC(C)CC(NC(=O)C(Cc1ccccc1)NC(=O)c1cnccn1)B(O)O (stereo not given) + NC1CCC(NC2CC2c2ccccc2)CC1 | 7.65 nM | 7.9 nM | 7.38 nM | 8.58 nM | 8.22 nM | 115% | 100% | 121% | 33.7% | 29.6% | 30.3% | 119% | 109% | 115% | 33.4% | 19.1% | 26.7% | 100% | 108% | 113% | viability, T/C [16]: 36.8%; viability, T/C [17]: 23.7%; viability, T/C [18]: 28.1%; viability, T/C [19]: 122%; viability, T/C [20]: 103%; viability, T/C [21]: 113%; viability, T/C [22]: 40.3%; viability, T/C [23]: 22.3%; viability, T/C [24]: 38.3%; viability, T/C [25]: 117%; viability, T/C [26]: 119%; viability, T/C [27]: 123%; viability, T/C [28]: 35.8%; viability, T/C [29]: 22.1%; viability, T/C [30]: 35.5% |
| CC(C)CC(NC(=O)CNC(=O)c1cc(Cl)ccc1Cl)B1OC(=O)CC(CC(=O)O)(C(=O)O)O1 (stereo not given) + NC1CCC(NC2CC2c2ccccc2)CC1 | > 100 nM | 92.5 nM | > 100 nM | > 100 nM | 86.5 nM | 95.9% | 105% | 109% | 80.4% | 72.6% | 60.7% | 119% | 123% | 108% | 80.5% | 79.8% | 46.6% | 120% | 120% | 108% | viability, T/C [16]: 98.1%; viability, T/C [17]: 78.4%; viability, T/C [18]: 51.9%; viability, T/C [19]: 104%; viability, T/C [20]: 113%; viability, T/C [21]: 105%; viability, T/C [22]: 89.1%; viability, T/C [23]: 92.6%; viability, T/C [24]: 48.9%; viability, T/C [25]: 134%; viability, T/C [26]: 107%; viability, T/C [27]: 100%; viability, T/C [28]: 100%; viability, T/C [29]: 76.6%; viability, T/C [30]: 43.9% |
